These are literature values, as cited in patent US9492404B2, “Compositions and methods for treatment of taupathy” (Revalesio Corporation, priority 2010, dated 2016).

For this series, the system named is primary progressive MS. The conditions noted are these: 943 patients with primary progressive MS.

With Glatiramer acetate, the “progression of disability and the disease” value is recorded as “failed to halt”.
